How the values were obtained:
S. aureus = test: Rapid kill (15 seconds) suspension test, ASTM E2783-11; format: cell-based; conditions: 15 seconds contact, ingredient in FGZ gel, log 10 reduction of 3.0 or higher counts as effective
Experimental: Table 2: Antibacterial Activity (Rapidity of Kill Test Organism S. aureus)
Rapid kill (15 seconds) test tube method described in ASTM-E2783-1198751-1 (suspension test).
In vitro rapid-kill test was carried out according to ASTM E2783-11; 10^8 CFU mL^−1 microbial cultures were prepared in a TSA media in order to determine the antimicrobial activity of acne formulations. 0.9 mL acne formulation was kept in contact with 0.1 mL microbial cultures for 15 seconds and subsequently neutralized using agent DE. PBS was used as a control.

[1] = Zone of inhibition test of salicylic acid and botanicals in FGZ base; format: cell-based; conditions: ingredients in FGZ base; test organism not given
Experimental: Various botanicals, salicylic acid and combinations were mixed in FGZ gel and antibacterial efficacy was evaluated.
Table 1: Antibacterial Activity of Salicylic Acid and Botanicals in FGZ Base (Zone of Inhibition Test)

O=C(O)c1ccccc1O [Salicylic acid 2%, Salicylic acid]
Log reductrion from control growth (S. aureus): 2.1
Zone of inhibition (mm) [1]: 1 mm

[H]/N=C(\N/C(=N/[H])NCCCCCCNC(=N)NC(=N)Nc1ccc(Cl)cc1)Nc1ccc(Cl)cc1 [chlorhexidine gluconate]
Log reductrion from control growth (S. aureus): 0.2

— US20210346425A1, “BOTANICAL FILM-FORMING ACNE COMPOSITIONS” (priority 2018, published 2021)
